Data taken from patent US8207167B2, “Aryl-phenyl-sulfonamide-phenylene compounds and their use” (PIMCO 2664 Limited, priority 2008, dated 2012).
Read-outs that look alike come from different tables or passages of the source.

Assay: In vivo pharmacokinetics in rat, oral and intravenous
Design: species or system Sprague-Dawley rats
Conditions: 1 mg/kg
Method: Absorption and metabolic stability were studied using an in vivo pharmacokinetics assay. Drug levels were assessed using ultra-performance LC/TOF-MS.
Three male Sprague-Dawley rats, 200-300 g, were dosed per route. […] Test compound was formulated in 50:50 tetraethylene glycol:PBS for both routes. Animals were given free access to food throughout the study. On the day prior to dosing, the carotid artery was cannulated for sample collection and for the intravenous study, the jugular vein was cannulated to enable dosing.
Blood samples were taken from the carotid artery at the following time points and placed in heparinised tubes:
Oral dosing—predose, 0.25, 0.5, 1, 2, 4, 8 and 24 hours post dose.
IV dosing—predose, 0.08, 0.25, 0.5, 1, 2, 4 and 8 hours post dose.
Blood samples were centrifuged to obtain plasma, which was transferred to a separate container and frozen at −20° C.
Samples were thawed at room temperature and prepared by protein precipitation with acetonitrile in the ratio 1:2 with plasma, followed by centrifugation for 10 minutes at 16,100×g (Eppendorf 5415D, Eppendorf AG, Hamburg, Germany). The supernatants were collected for analysis. The standard samples were prepared similarly, after spiking blank rat plasma samples to study compound concentrations at 1, 2, 5, 10, 20, 50, 100, 200, 500 and 1000 ng/mL. In addition, extra samples were prepared from 0-1 hour i.v. samples by diluting 1/20 with 50% aqueous acetonitrile to avoid exceeding the linear range of the analytical method.
A Waters Acquity liquid ultra-performance chromatographic system (Waters Corp., Milford, Mass., USA) with autosampler, vacuum degasser and column oven was used. The analytical column used for all compounds was a Waters BEH C18, (2.1×50 mm, 1.7 μm, Waters Corp, Milford, Mass., USA) together with a 0.2 μm on-line filter before the column. The eluents were 0.1% acetic acid (A, pH 3.2) and methanol (B). Gradient elution from 5% to 60% B in two minutes was employed, followed by one minute gradient to 90% B and column equilibration. The flow rate was 0.5 mL/min and the column oven temperature was 35° C. The flow was directed to the MS via Water Acquity photo-diode-array (PDA) detector. LC/TOF-MS data were recorded with a Micromass LCT Premier XE time-of-flight (TOF) mass spectrometer (Micromass Ltd., Manchester, England) equipped with a LockSpray electrospray ionization source. A positive ionization mode of electrospray was used for all compounds. The mass range of m/z 100-900 was acquired. The W-option of the reflector was used, and the DRE (dynamic range enhancement) option was set to on. The mass spectrometer and HPLC system were operated under Micromass MassLynx 4.1 software. Leucine enkephalin ([M+H]^+ m/z 556.2771) was used as a lock mass compound for accurate mass measurements and was delivered into the LockSpray probe with a syringe pump. MassLynx 4.1 software was used for controlling the instrumentation and for data processing.
The pharmacokinetic parameters for the test compounds were calculated by WinNonlin Pro (Pharsight Corp, CA) using standard noncompartmental methods. The elimination phase half-life (t1/2) was calculated by least-squares regression analysis of the terminal linear part of the log concentration−time curve. The area under the plasma concentration−time curve (AUC) was determined by use of the linear trapezoidal rule up to the last measurable concentration and thereafter by extrapolation of the terminal elimination phase to infinity. The tentative oral bioavailability (F) was calculated by dividing the AUC (0-24 hours) after p.o. administration by the AUC (0-8 hours) after i.v. administration, i.e., F=AUC(p.o.)/AUC(i.v), and reported as percentages (%).

CNC(CO)c1cccc(NS(=O)(=O)c2ccc(-c3ccc(F)cc3F)cc2)c1 (stereo not drawn) [ABD789, 2′,4′-Difluoro-N-(3-(2-hydroxy-1-(methylamino)ethyl)phenyl)biphenyl-4-sulfonamide] gave an AUC (i.v.) of 11900 ng/mL/min, a half-life (male, Sprague-Dawley, plasma, iv, i.v., read-out: T½ (converted)) of 0.81 h and a bioavailability (male, Sprague-Dawley, plasma, oral, read-out: Bioavailability F %) of 38%. The half-life (male, Sprague-Dawley, plasma, po, following oral administration, read-out: extended half life (converted)) was 7.67 h, the half-life (male, Sprague-Dawley, plasma, po, p.o., read-out: T½ (converted)) was 3.17 h and the AUC (p.o.) was 1500 ng/mL/min.
